Test [1] deals with T1, ferroportin (Homo sapiens, UniProt Q9NP59).
T1 sequence (Q9NP59 1-571): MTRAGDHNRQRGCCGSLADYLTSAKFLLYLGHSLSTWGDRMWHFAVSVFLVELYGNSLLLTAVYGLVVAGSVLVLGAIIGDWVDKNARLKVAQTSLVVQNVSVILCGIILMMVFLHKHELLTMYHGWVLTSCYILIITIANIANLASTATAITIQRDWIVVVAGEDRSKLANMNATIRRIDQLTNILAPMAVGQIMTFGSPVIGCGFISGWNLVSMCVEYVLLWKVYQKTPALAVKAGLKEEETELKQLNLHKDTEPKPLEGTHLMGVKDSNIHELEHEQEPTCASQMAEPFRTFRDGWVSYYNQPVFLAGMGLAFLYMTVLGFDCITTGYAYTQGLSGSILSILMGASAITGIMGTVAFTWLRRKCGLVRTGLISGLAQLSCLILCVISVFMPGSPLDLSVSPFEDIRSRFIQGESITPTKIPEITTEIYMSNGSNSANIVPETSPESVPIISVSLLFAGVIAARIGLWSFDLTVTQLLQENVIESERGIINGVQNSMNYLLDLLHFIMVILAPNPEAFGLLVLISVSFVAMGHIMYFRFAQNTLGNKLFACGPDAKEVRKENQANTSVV
The test is described as follows: FPN activity assay: ferroportin-GFP internalization/degradation in HEK293 cells. Format: cell-based. The arrangement: expressed in transfected cells. The note with it: read-out: FPN IC50. Here is the method: Following internalization, the ferroporin protein is degraded.
A retro inverse peptide is a peptide with a reversed sequence in all D amino acids. An example is that Hy-Glu-Thr-His-NH2 becomes Hy-DHis-DThr-DGlu-NH2. The EC50 of these reference compounds for ferroportin internalization/degradation was determined according to the FPN activity assay described above. These peptides served as control standards.

Test [2] concerns the target T1, ferroportin. The test can be described thus: T47D cell-based ferroportin internalization assay in presence of mouse serum albumin (MSA). The arrangement: a human breast carcinoma adherent cell line which endogenously expresses ferroportin; host or cells: T47D. A digest of the protocol:
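Peptide potency for inducing ferroportin internalization was measured in T47D cells in the presence of serum albumin. Cells grown in RPMI with fetal bovine serum were seeded in 96-well plates at 80-100 k cells per well in 100 ul and rested overnight. Dilution series of test peptides were preincubated 30 min at room temperature, then added to the cells after the medium was aspirated.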

[3] abbreviates: ferroportin-GFP internalization/degradation, HEK293 cells, Table 6E.
Setting [4] is: T47D internalization assay in presence of mouse serum albumin (MSA), Table 6E.
[5] abbreviates: Table 6E, ferroportin-GFP internalization/degradation, at least 18 hours incubation.
[6] abbreviates: Table 6E, T47D internalization assay with MSA.
Where [7] appears, read: ferroportin-GFP HEK293 cells, at least 18 hours.
The mark [8] stands for this setting: T47D cells, 0.5% mouse serum albumin, 1 hr incubation.

Read-outs that look alike come from different tables or passages of the source. Starred links: 1 amine or outer side, 2 acyl side, 3 side chain; linkers in the order of their positions; H or OH if unused. Positions of bridges follow the written chain, without caps; N, C: chain ends. Non-standard residues stand in square brackets, D forms with d. Residues, ends and D or L forms follow the SMILES beside them. Groups on a side chain read outwards from the residue. *: point of attachment. X5 = CCCCCCCCCCCCCCCC(=O)NCC[N+](C)(C)CC(=O)*; C18 diacid = O=C(O)CCCCCCCCCCCCCCCCC(=O)*; Dip = N[C@H](C(=O)O)C(c1ccccc1)c1ccccc1; γGlu = O=C(O)[C@H](CCC(=O)[*:2])N[*:1]; NHCH2CHPh2 = c1ccc(C(CN*)c2ccccc2)cc1; Palmitoyl = CCCCCCCCCCCCCCCC(=O)*; β3hF = N[C@H](CC(=O)O)Cc1ccccc1; dNMeL = CN[C@H](CC(C)C)C(=O)O; NMeK = CN[C@@H](CCCCN)C(=O)O; Pen = CC(C)(S)[C@H](N)C(=O)O; αMeK = C[C@](N)(CCCCN)C(=O)O; Isovaleryl = CC(C)CC(=O)*; Dap = NC[C@H](N)C(=O)O; AEEA = NCCOCCOCC(=O)O; Inp = O=C(O)C1CCNCC1; Ahx = NCCCCCC(=O)O

One may read the IC50 as the concentration at which inhibition is half-maximal.

Turning to `COC(=O)CC[C@H](NC(=O)CC(C)C)C(=O)N[C@H](C(=O)N[C@@H](Cc1c[nH]cn1)C(=O)N[C@H](C(=O)N1CCC[C@H]1C(=O)N[C@H]1CSSC[C@@H](C(=O)N(C)[C@@H](CCCCNC(=O)COCCOCCNC(=O)COCCOCCNC(=O)[C@H](CN)NC(=O)CCCCCCCCCCCCCCCCC(=O)O)C(=O)N[C@H](CC(N)=O)Cc2ccccc2)NC1=O)C(c1ccccc1)c1ccccc1)[C@@H](C)O` [compound 256] (Isovaleryl-E(OMe)TH[Dip]PCC[NMeK]([AEEA-AEEA-Dap-C18 diacid])[β3hF]-NH2; disulfide 6-7), the DC50 at ferroportin [1] (setting [3]) lay within 1 to 10 nM. At ferroportin [2] (setting [4]), the IC50 lay within 10 to 100 nM.

Turning to `CCCCCCCCCCCCCCCC(=O)NCCCCCC(=O)NCCCC[C@@H](C(=O)N[C@H](C(=O)N[C@H](CCCCN)C(N)=O)C(c1ccccc1)c1ccccc1)N(C)C(=O)[C@@H]1CSSC[C@H](NC(=O)[C@@H]2CCCN2C(=O)[C@@H](NC(=O)[C@H](Cc2cnc[nH]2)NC(=O)[C@@H](NC(=O)[C@H](CCC(=O)O)NC(=O)CC(C)C)[C@@H](C)O)C(c2ccccc2)c2ccccc2)C(=O)N1` [compound 196] (Isovaleryl-ETH[Dip]PCC[NMeK]([Ahx-Palmitoyl])[Dip][dK]-NH2; disulfide 6-7), the DC50 at ferroportin [1] (setting [5]) is 1 to 10 nM. For the same compound, the IC50 on ferroportin [2] (setting [6]) lay within 1 to 10 nM.

Take `CC[C@H](C)[C@@H]1NC(=O)[C@@H](NC(=O)[C@@H]2CCCN2C(=O)[C@@H](NC(=O)[C@H](Cc2c[nH]cn2)NC(=O)[C@@H](NC(=O)[C@H](CCC(=O)O)NC(=O)CC(C)C)[C@@H](C)O)C(c2ccccc2)c2ccccc2)CSSC[C@@H](C(=O)N[C@H](CC(=O)N[C@@H](CCCCNC(=O)COCCOCCNC(=O)COCCOCCNC(=O)CC[C@H](NC(=O)CCCCCCCCCCCCCCCCC(=O)O)C(=O)O)C(=O)N[C@H](CCCCN)C(N)=O)Cc2ccccc2)NC1=O` [Compd 36] (Isovaleryl-ETH[Dip]PCIC[β3hF]K([AEEA-AEEA-γGlu-C18 diacid])[dK]-NH2; disulfide 6-8): the DC50 on ferroportin [1] (setting [7]) was in the range of 10 to 100 nM. For the same compound, at ferroportin [2] (setting [8]), the IC50 is 10 to 100 nM.

Regarding `CC(C)CC(=O)N[C@@H](CCC(=O)O)C(=O)N[C@H](C(=O)N[C@@H](Cc1c[nH]cn1)C(=O)N[C@H](C(=O)N1CCC[C@H]1C(=O)N[C@H]1CSSC[C@@H](C(=O)N[C@@H](CCCCNC(=O)COCCOCCNC(=O)COCCOCCNC(=O)[C@H](CN)NC(=O)CCCCCCCCCCCCCCCCC(=O)O)C(=O)N[C@H](CC(=O)N[C@H](CCCCN)C(N)=O)Cc2ccccc2)NC1=O)C(c1ccccc1)c1ccccc1)[C@@H](C)O` [Compd 41] (Isovaleryl-ETH[Dip]PCCK([AEEA-AEEA-Dap-C18 diacid])[β3hF][dK]-NH2; disulfide 6-7), on ferroportin [1] (setting [7]), the DC50 was in the range of 10 to 100 nM. The IC50 at ferroportin [2] (setting [8]) was 10 to 100 nM.

`C[C@@H](O)[C@H](NC(=O)[C@H](CCC(=O)O)NC(=O)C1CCNCC1)C(=O)N[C@@H](Cc1c[nH]cn1)C(=O)N[C@H](C(=O)N1CCC[C@H]1C(=O)N[C@H]1CSSC[C@@H](C(=O)N(C)[C@@H](CCCCNC(=O)COCCOCCNC(=O)COCCOCCNC(=O)[C@H](CN)NC(=O)CCCCCCCCCCCCCCCCC(=O)O)C(=O)N[C@H](CC(=O)N[C@H](CCCCN)C(N)=O)Cc2ccccc2)NC1=O)C(c1ccccc1)c1ccccc1` [compound 300] (H-[Inp]ETH[Dip]PCC[NMeK]([AEEA-AEEA-Dap-C18 diacid])[β3hF][dK]-NH2; disulfide 7-8): on ferroportin [1] (setting [3]), the DC50 was 100 to 500 nM. Further, the IC50 at ferroportin [2] (setting [4]) lay within 100 to 500 nM.

For the compound `CC(C)CC(=O)N[C@@H](CCC(=O)O)C(=O)N[C@H](C(=O)N[C@@H](Cc1cnc[nH]1)C(=O)N[C@H](C(=O)N1CCC[C@H]1C(=O)N[C@H]1CSSC[C@@H](C(=O)N(C)[C@@H](CCCCNC(=O)COCCOCCNC(=O)COCCOCCNC(=O)[C@H](CN)NC(=O)CCCCCCCCCCCCCCCCC(=O)O)C(=O)N[C@H](C(=O)N(C)[C@@H](CCCCN)C(N)=O)C(c2ccccc2)c2ccccc2)NC1=O)C(c1ccccc1)c1ccccc1)[C@@H](C)O` [compound 275] (Isovaleryl-ETH[Dip]PCC[NMeK]([AEEA-AEEA-Dap-C18 diacid])[Dip][NMeK]-NH2; disulfide 6-7), at ferroportin [1] (setting [3]), the DC50 fell in the range of 10 to 100 nM. Also, on ferroportin [2] (setting [4]), the IC50 lay in the range of 10 to 100 nM.

Regarding `CCCCCCCCCCCCCCCC(=O)NCC[N+](C)(C)CC(=O)NCCCC[C@H]1C(=O)N[C@@H](C(c2ccccc2)c2ccccc2)C(=O)N[C@@H](C(N)=O)CCCCNC(=O)CC[C@H](NC(=O)CC(C)C)C(=O)N[C@@H]([C@@H](C)O)C(=O)N[C@@H](Cc2c[nH]cn2)C(=O)N[C@@H](C(c2ccccc2)c2ccccc2)C(=O)N2CCC[C@H]2C(=O)N[C@H]2CSSC[C@H](NC2=O)C(=O)N1C` [compound 143] (Isovaleryl-ETH[Dip]PCC[NMeK](X5)[Dip][dK]-NH2; lactam 1-10; disulfide 6-7), the DC50 at ferroportin [1] (setting [5]) lay in the range of 10 to 100 nM. Besides, the IC50 at ferroportin [2] (setting [6]) fell in the range of 1 to 10 nM.

For `COC(=O)CC[C@H](NC(=O)CC(C)C)C(=O)N[C@H](C(=O)N[C@@H](Cc1c[nH]cn1)C(=O)N[C@H](C(=O)N1CCC[C@H]1C(=O)N[C@H]1CSSC[C@@H](C(=O)N[C@@](C)(CCCCNC(=O)COCCOCCNC(=O)COCCOCCNC(=O)[C@H](CN)NC(=O)CCCCCCCCCCCCCCCCC(=O)O)C(=O)N[C@H](CC(=O)N[C@H](CCCCN)C(N)=O)Cc2ccccc2)NC1=O)C(c1ccccc1)c1ccccc1)[C@@H](C)O` [compound 301] (Isovaleryl-E(OMe)TH[Dip]PCC[αMeK]([AEEA-AEEA-Dap-C18 diacid])[β3hF][dK]-NH2; disulfide 6-7), the DC50 at ferroportin [1] (setting [3]) is 10 to 100 nM. In addition, the IC50 on ferroportin [2] (setting [4]) was in the range of 10 to 100 nM.

As to `CC(C)CC(=O)N[C@@H](CCC(=O)O)C(=O)N[C@H](C(=O)N[C@@H](Cc1cnc[nH]1)C(=O)N[C@H](C(=O)N1CCC[C@H]1C(=O)N[C@H]1CSSC[C@@H](C(=O)N(C)[C@@H](CCCCNC(=O)COCCOCCNC(=O)COCCOCCNC(=O)[C@H](CN)NC(=O)CCCCCCCCCCCCCCCCC(=O)O)C(=O)N[C@H](CC(=O)N[C@H](CCCCN)C(=O)N(C)[C@H](CC(C)C)C(N)=O)Cc2ccccc2)NC1=O)C(c1ccccc1)c1ccccc1)[C@@H](C)O` [compound 249] (Isovaleryl-ETH[Dip]PCC[NMeK]([AEEA-AEEA-Dap-C18 diacid])[β3hF][dK][dNMeL]-NH2; disulfide 6-7), the DC50 at ferroportin [1] (setting [3]) was in the range of 10 to 100 nM. For the same compound, the IC50 on ferroportin [2] (setting [4]) was 10 to 100 nM.

Take `CC(C)CC(=O)N[C@@H](CCC(=O)O)C(=O)N[C@H](C(=O)N[C@@H](Cc1c[nH]cn1)C(=O)N[C@H](C(=O)N1CCC[C@H]1C(=O)N[C@H]1CSSC(C)(C)[C@@H](C(=O)N[C@@H](CCCCNC(=O)COCCOCCNC(=O)COCCOCCNC(=O)[C@H](CN)NC(=O)CCCCCCCCCCCCCCCCC(=O)O)C(=O)N[C@H](CC(=O)N[C@H](CCCCN)C(N)=O)Cc2ccccc2)NC1=O)C(c1ccccc1)c1ccccc1)[C@@H](C)O` [compound 272] (Isovaleryl-ETH[Dip]PC[Pen]K([AEEA-AEEA-Dap-C18 diacid])[β3hF][dK]-NH2; disulfide 6-7): the DC50 at ferroportin [1] (setting [3]) was 10 to 100 nM. On ferroportin [2] (setting [4]), the IC50 was in the range of 10 to 100 nM.

Turning to `COC(=O)CC[C@H](NC(=O)CC(C)C)C(=O)N[C@H](C(=O)N[C@@H](Cc1c[nH]cn1)C(=O)N[C@H](C(=O)N1CCC[C@H]1C(=O)N[C@H]1CSSC[C@@H](C(=O)N(C)[C@@H](CCCCNC(=O)CCCCCNC(=O)[C@H](CN)NC(=O)CCCCCCCCCCCCCCCCC(=O)O)C(=O)N[C@H](C(=O)N[C@H](CCCCN)C(N)=O)C(c2ccccc2)c2ccccc2)NC1=O)C(c1ccccc1)c1ccccc1)[C@@H](C)O` [compound 207] (Isovaleryl-E(OMe)TH[Dip]PCC[NMeK]([Ahx-Dap-C18 diacid])[Dip][dK]-NH2; disulfide 6-7), the DC50 on ferroportin [1] (setting [5]) lay within 1 to 10 nM. At ferroportin [2] (setting [6]), the IC50 lay in the range of 10 to 100 nM.

Regarding `CCCCCCCCCCCCCCCC(=O)NCCCCCC(=O)NCCCC[C@@H](C(=O)NCC(c1ccccc1)c1ccccc1)N(C)C(=O)[C@@H]1CSSC[C@H](NC(=O)[C@@H]2CCCN2C(=O)[C@@H](NC(=O)[C@H](Cc2cnc[nH]2)NC(=O)[C@@H](NC(=O)[C@H](CCC(=O)O)NC(=O)CC(C)C)[C@@H](C)O)C(c2ccccc2)c2ccccc2)C(=O)N1` [compound 163] (Isovaleryl-ETH[Dip]PCC[NMeK]([Ahx-Palmitoyl])-NHCH2CHPh2; disulfide 6-7), the DC50 at ferroportin [1] (setting [5]) was in the range of 10 to 100 nM. In addition, the IC50 on ferroportin [2] (setting [6]) was 1 to 10 nM.

These data come from patent US20250277012A1 (Protagonist Therapeutics, Inc., priority 2021, published 2025).
